In PubChem BioAssay AID2137 (Broad Institute, 2009) one finds IC50 data, which are given here for 50 molecules.

Molecules are shown by their SMILES. Where “and” joins values, the source holds several entries; their conditions need not be identical. Equal entries are not always repeated. Records with an inconclusive call do not appear. Calls of active or inactive are those of the source.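 The calls were made as follows: active = IC50 at most ten times the top tested dose; inconclusive = flat fit with 30 to 70% activity, or an invalid poor fit; inactive = the rest.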

For the experiment, the target named is S. pyogenes M1 GAS streptokinase expression, plasminogen activation OD405. The experiment is described as follows: S. pyogenes plasminogen activation signal decrease – absorbance readout, M1 GAS, streptokinase expression inhibitor project, dose response (AID 2137).
On to `Cc1ccc(C(=O)C(c2ccccc2)N2Cc3ccccc3C2=N)cc1` (stereo not given), for which the IC50 is 8.38 µM.

Regarding `Cc1noc(C)c1CSc1nc2sc(C)c(C)c2c(=O)n1C1CCCC1`, the half-inhibitory concentration (IC50) was 3.13 µM.

Turning to `Cc1ccc(/C=C/c2ccc(=O)n(Cc3ccccc3Cl)n2)cc1`, the half-maximal inhibitory concentration (IC50) was 14.2 µM.

Take `O=C(Nc1cc(S(=O)(=O)Nc2ccc(Cl)cc2)ccc1N1CCCCC1)c1ccc(F)cc1`: the IC50 was 4 µM.

With `N#Cc1ccc(C(=O)n2c3ccccc3c3ccccc32)cc1`, the IC50 is 57.7 µM.

As to `FC(F)(F)c1cc(-c2ccco2)nc(NCc2ccc(Cl)cc2)n1`, the IC50 was > 500 µM (inactive).

On to `Clc1cccc(Cl)c1CSc1nnc(/C=C/c2ccccc2)o1`, for which the half-inhibitory concentration (IC50) was 4.39 µM.

In the case of `CCC1CCCCN1S(=O)(=O)c1ccc(NC(=O)c2nc(S(C)(=O)=O)ncc2Cl)cc1` (stereo not given), the IC50 is 1.17 µM.

Consider `Cc1cc2oc(=O)cc(CN(C)Cc3ccccc3)c2cc1C(C)C`, for which the IC50 was 9.18 µM.

As to `CC1CC(C)CN(c2ncc3c(n2)CC(c2ccccc2Cl)CC3=O)C1` (stereo not given), the IC50 is 2.26 µM.

With `CC1CCN(C(=O)N2c3ccccc3Sc3ccccc32)CC1`, the IC50 was 15 µM.

Regarding `FC(F)(F)c1cccc(-c2cc3ccccc3nc2N2CCCC2)c1`, the half-inhibitory concentration (IC50) is 3.94 µM.

Take `O=C(CSc1ccc(Cl)cc1)N1c2ccccc2Sc2ccccc21`: the half-inhibitory concentration (IC50) is 3.1 µM.

With `CCCOc1ccc(-c2nc(OC)c3ccccc3n2)cc1`, the concentration for half-maximal inhibition (IC50) was 4.03 µM.

With `Cc1cc(C(=O)OC(C(=O)Nc2cccc(C(F)(F)F)c2)c2ccccc2)c(C)o1` (stereo not given), the IC50 is 7.09 µM.

Turning to `Cc1ccc(C(=O)n2c3ccccc3c3ccccc32)cc1`, the IC50 was 2.89 µM.

As to `CC[C@@H](C)[C@H](NC(=O)OC(C)(C)C)c1nnc(S(=O)(=O)Cc2cc(C)ccc2C)o1`, the IC50 is 4.15 µM.

Take `Cc1cc(C)c(NC(=O)c2oc3ccccc3c2COc2ccccc2)c(C)c1`: the IC50 was 98.8 µM.

`CC(=O)N(C)c1ccc(OCC(O)Cn2c3ccc(Cl)cc3c3cc(Cl)ccc32)cc1` (stereo not given): the IC50 was 4.94 µM.

For the molecule `CCCCn1c(=O)c(C(=O)NCc2ccccc2)c(O)c2ccccc21`, the IC50 was > 500 µM (inactive).

Regarding `O=C(CSc1cccs1)N1c2ccccc2Sc2ccccc21`, the concentration for half-maximal inhibition (IC50) was 33.8 µM.

For `CC(C)(C)N/N=C1\CC(c2ccccc2)Oc2ccccc21` (stereo not given), the IC50 is 7.95 µM.

As for `COc1ccc(-c2csc3ncnc(N4CCN(c5ccccc5Cl)CC4)c23)cc1`, the half-inhibitory concentration (IC50) was 6.67 µM.

`O=C(c1ccc(Cl)cc1)n1c2ccccc2c2ccccc21`: the IC50 is 18.2 µM.

Take `FC(F)(F)c1nc(N2CCN(c3ccccc3)CC2)nc2c1CCCCC2`: the IC50 was 1.73 µM.

With `Cc1ccc(C(=O)N2c3ccccc3Sc3ccccc32)cc1`, the IC50 is 46.5 µM.

With `O=C(c1ccc(OC(F)(F)F)cc1)n1c2ccccc2c2ccccc21`, the half-maximal inhibitory concentration (IC50) was 6.36 µM.

Consider `O=C(CSc1nc(-c2ccc(Cl)cc2)[nH]c(=O)n1)Nc1cccc(Cl)c1`, for which the IC50 is 3.54 µM.

`CC(C)c1ccc(NC(=O)c2cc(S(=O)(=O)NCC3COc4ccccc4O3)ccc2F)cc1` (stereo not given): the concentration for half-maximal inhibition (IC50) was 3.65 µM.

As to `COc1ccc(Nc2ncnc3scc(-c4ccc(OC)cc4)c23)cc1`, the half-maximal inhibitory concentration (IC50) was 5.7 µM.

In the case of `COc1cccc(C(=O)n2c3ccccc3c3ccccc32)c1`, the concentration for half-maximal inhibition (IC50) is 13.7 µM.

Turning to `COc1ccc(SCC(=O)N2c3ccccc3Sc3ccccc32)cc1`, the half-inhibitory concentration (IC50) was 6.54 µM.

Regarding `Cc1cc(C)c2nc(-c3ccncc3)cc(C(=O)N3CCN(Cc4ccccc4Cl)CC3)c2c1`, the IC50 is 9.54 µM.

On to `C=CCn1c(SCC#N)nc2c(c1=O)C(C)(C)Cc1ccccc1-2`, for which the concentration for half-maximal inhibition (IC50) is 10.1 µM.

Regarding `COc1ccc(Sc2ccc(NC(=O)c3ccccc3Cl)cc2C#N)cc1`, the IC50 is 2.27 µM.

As to `COc1ccc2oc(C(=O)N3CCN(C(c4ccccc4)c4ccccc4)CC3)c(C)c2c1`, the concentration for half-maximal inhibition (IC50) was 24.9 µM.

In the case of `COCc1cc(Sc2c(Cl)cccc2Cl)nc(-c2ccccc2)n1`, the 50% inhibitory concentration (IC50) is 7.59 µM.

Turning to `O=C(CSc1ccncc1)N1c2ccccc2Sc2ccccc21`, the 50% inhibitory concentration (IC50) is 83.6 µM.

Regarding `O=C(NC(=S)Nc1ccccc1N1CCCC1)c1ccccc1Br`, the 50% inhibitory concentration (IC50) is 23.6 µM.

Turning to `CN1C(=O)/C(=C\c2cccn2-c2ccc3ccccc3c2)C(=O)NC1=S`, the IC50 was 5.42 µM.

For `CN(C)c1ccc(C(=O)n2c3ccccc3c3ccccc32)cc1`, the IC50 was 4.09 µM.

With `O=C(CSc1ccccc1)N1c2ccccc2Sc2ccccc21`, the IC50 was 9.11 µM.

As to `CCN(CC)C(=S)SCC(=O)Nc1nc(-c2ccccc2)c(-c2ccccc2)o1`, the IC50 was 20.5 µM.

`Cn1c(=O)c2c(nc(SCc3ccccc3)n2Cc2ccc(Cl)cc2)n(C)c1=O`: the concentration for half-maximal inhibition (IC50) was 5.9 µM.

Consider `COC(=O)c1ccccc1NC(=O)c1nc(S(=O)(=O)Cc2ccccc2)ncc1Cl`, for which the IC50 was 3.37 µM.

For the molecule `Cc1ccc(SCC(=O)N2c3ccccc3Sc3ccccc32)cc1`, the IC50 is 7.6 µM and 5.6 µM.

As for `O=C(c1ccccc1C(F)(F)F)n1c2ccccc2c2ccccc21`, the IC50 is 6.62 µM.

With `COc1ccc(-c2nc(-c3cccs3)c(-c3cccs3)[nH]2)cc1OC`, the half-inhibitory concentration (IC50) is 5.93 µM.

With `CCOC(=O)c1c(NC(=O)c2cccs2)sc(CC)c1-c1cccs1`, the 50% inhibitory concentration (IC50) was 21.8 µM.

For `O=C(c1ccc(F)cc1)n1c2ccccc2c2ccccc21`, the half-maximal inhibitory concentration (IC50) is 6.27 µM.
